Earlier results on one molecule are cited in publication PMC5762609 (Journal of Pharmaceutical Analysis, 2016).

`CC(=O)O[C@H]1C(=O)[C@]23C[C@H]2C[C@H]2OC[C@@]2(OC(C)=O)[C@H]3[C@H](OC(=O)c2ccccc2)[C@]2(O)C[C@H](OC(=O)[C@H](O)[C@@H](NC(=O)OC(C)(C)C)c3ccccc3)C(C)=C1C2(C)C` [Larotaxel]: the Content in tissues entry is “higher in rich-blood tissues, such as heart, liver, spleen, lung and kidney”; the Tissue distribution result was “distributed widely and rapidly”.
